# US9456606B2, “Pesticidal mixtures” (Syngenta Participations AG, priority 2011, dated 2016)
# System: Tetranvchus urticae (Two-Spotted Spider Mite)
# Assay: Tetranychus urticae bean leaf disc spray test, mobile stages mortality after 8 days, with COLBY expected action
# Assay type: in vivo
# Conditions: for DMET observed control %: DMET alone; for C8 observed control %: C8 alone; for SPAT observed control %: SPAT alone
# Source text: The action to be expected E for a given active ingredient combination obeys the so-called COLBY formula and can be calculated as follows (COLBY, S. R. “Calculating synergistic and antagonistic responses of herbicide combination”. Weeds, Vol. 15, pages 20-22; 1967):
# According to COLBY, the expected (additive) action of active ingredients A)+B) using p+q ppm of active ingredient is
# If the action actually observed (O) is greater than the expected action (E), then the action of the combination is super-additive, i.e. there is a synergistic effect. In mathematical terms the synergism factor SF corresponds to O/E. In the agricultural practice an SF of ≧1.2 indicates significant improvement over the purely complementary addition of activities (expected activity), while an SF of ≦0.9 in the practical application routine signals a loss of activity compared to the expected activity.
# Tetranvchus urticae (Two-Spotted Spider Mite)
# Bean leaf discs on agar in 24-well microtiter plates are sprayed with test solutions (DMSO). After drying, the leaf discs are infested with mite populations of mixed ages. 8 days later, discs are checked for mobile stages (I removed “mixed population”) mortality.
# Columns 4 and 5 show the control observed from the compounds alone. […] When a compound applied alone gave no control at a particular rate, it is assumed that lower rates of that compound alone also give no control. DMET=deltamethrin, SPAT=spirotetramat, C8=compound 8 in Table C.
structure (smiles),measurement,setting,value
"CC1(C)[C@H](C(=O)O[C@H](C#N)c2cccc(Oc3ccccc3)c2)[C@@H]1C=C(Br)Br [DMET, deltamethrin]",DMET observed control %,0.39 ppm,0%
same,DMET observed control %,0.781 ppm,0%
same,DMET observed control %,1.562 ppm,0%
same,DMET observed control %,3.125 ppm,0%
same,DMET observed control %,6.25 ppm,75%
same,DMET observed control %,12.5 ppm,80%
same,DMET observed control %,25 ppm,90%
same,DMET observed control %,50 ppm,90%
CCC(=O)NC1CCc2cc(C3=NOC(c4cc(Cl)cc(Cl)c4)(C(F)(F)F)C3)ccc21 (racemic) [C8],C8 observed control %,"0.094 ppm, Table 1",0%
same,C8 observed control %,"0.187 ppm, Table 1",0%
same,C8 observed control %,"0.375 ppm, Table 1",0%
same,C8 observed control %,"0.375 ppm, Table 2",0%
same,C8 observed control %,"0.75 ppm, Table 1",25%
same,C8 observed control %,"0.75 ppm, Table 2",55%
same,C8 observed control %,"1.5 ppm, Table 1",65%
same,C8 observed control %,"1.5 ppm, Table 2",80%
same,C8 observed control %,"3.0 ppm, Table 2",95%
same,C8 observed control %,"6.0 ppm, Table 2",95%
"CCOC(=O)OC1=C(c2cc(C)ccc2C)C(=O)N[C@]12CC[C@@H](OC)CC2 [SPAT, spirotetramat]",SPAT observed control %,1.56 ppm,0%
same,SPAT observed control %,3.125 ppm,0%
same,SPAT observed control %,3.25 ppm,0%
same,SPAT observed control %,6.25 ppm,25%
same,SPAT observed control %,12.5 ppm,65%
same,SPAT observed control %,25 ppm,80%
same,SPAT observed control %,50 ppm,85%
same,SPAT observed control %,100 ppm,85%
same,SPAT observed control %,.25 ppm,80%
